Data as given in patent US20070275984A1, “Novel Thieno-Pyridine and Thieno-Pyrimidine Derivatives and Their Use as Positive Allosteric Modulators of Mglur2-Receptors” (JANSSEN PHARMACEUTICA N.V., priority 2004, published 2007).
Several values for one entry are separate records, joined by “and”; a condition that tells them apart may be missing. Equal values may be shown once.

Key:
native rat mGluR2 = biological target: T1, native rat mGluR2 (Rattus norvegicus, UniProt P31421); test: [35S]GTPγS binding assay using cortical rat brain membranes, potentiation of a selective mGluR2 agonist; format: biochemical; details: for Activity: left-ward shift of agonist mGluR2 concentration-response curve: rat cortical membranes, selective mGluR2 agonist such as LY379268, in the presence of 3 or 10 μM of positive allosteric modulator
T1 construct: from tissue; host or cells: cerebral cortex of Sprague-Dawley rats (membrane preparation)
Source text: The [^35S]GTPγS binding is a functional membrane-based assay used to study G-protein coupled receptor (GPCR) function. This method is using a binding assay to assess the initial step in receptor-mediated G protein activation in membranes prepared from cells expressing recombinant GPCR or using membranes from discrete area of the rat brain. In brief, the assay is measuring the activation of G proteins by catalyzing the exchange of guanosine 5′-diphosphate (GDP) by guanosine 5′-triphosphate (GTP) at the α subunit. The GTP-bounded G proteins dissociate into two subunits, Gα-GTP and Gβγ, which in turn regulate intracellular enzymes and ion channels. GTP is rapidly hydrolysed by the Gα-subunit (GTPases) and the G protein is deactivated and ready for new GTP exchange cycle (Harper (1998) Curr Protoc Pharmacol 2.6.1-10, John Wiley & Sons, Inc.). [^35S]GTPγS, a non-hydrolyzed analogue of GTP, is used for this purpose.
This method is widely used to study receptor activation of G protein in membranes prepared from rat brain tissue, including mGluR2 receptors (Schaffhauser et al 2003, Pinkerton et al, 2004). mGluR2 receptors are expressed in the rat brain cortex (Mutel et al (1998) J. Neurochem. 71:2558-64; Schaffhauser et al (1998) Mol. Pharmacol. 53:228-33) and are coupled to Gαi-protein, a preferential coupling for this method.
[^35S]GTPγS binding assay using cortical rat brain membranes preparation was used and adapted from Schaffhauser et al ((2003) Mol. Pharmacol. 4:798-810) for the detection of the positive allosteric modulator properties of the compounds of this invention on native rat mGluR2. In order to eliminate the possible interference with group III Gαi-protein coupled mGluRs (mGluR4, mGluR7, mGluR8; mGluR6 is not expressed in the cortex (Laurie et al (1997) Neuropharmacol. 36:145-52)), the potentiation of the response to a selective mGluR2 agonist, such as DCG-IV (Cartmell et al. (1998) Br. J. Pharmacol. 123(3):497-504) or LY379268 (Monn et al. (1999) J. Med. Chem 42:1027-40), by compounds described in the present invention was performed.
Membrane preparation. Cortices were dissected out from brains of 200-300 g Sprague-Dawley rats (Charles River Laboratories, L'Arbresle, France). Tissues were homogenized in 6 volumes (vol/wt) of 10% sucrose at 4° C. using a glass-teflon homogenizer. The homogenate was centrifuged at 1250 g for 10 min, and the supernatant was centrifuged at 40,000 g for 20 min (4° C.). The pellet was resuspended in 25 ml water using a Polytron disrupter (Kinematica AG, Luzern, Switzerland) and centrifuged for 10 min at 3000 g. (4° C.). The supernatant was centrifuged at 40,000 g for 20 min (4° C.). The supernatant was discarded and the pellet washed twice by resuspension in 10 volumes 5 mM HEPES-KOH, pH 7.4. The homogenate was frozen and thawed twice and centrifuged at 40,000 g for 20 min. The final pellet was resuspended in 5 mM HEPES-KOH, pH 7.4 and stored at −80° C. before its use. Protein concentration was determined by the Bradford method (Bio-Rad protein assay, Reinach, Switzerland) with bovine serum albumin as standard.
[^35S]GTPγS binding assay. Measurement of mGluR2 positive allosteric modulators properties in rat cortical membranes was performed as follows: rat cortical membrane (1.5 μg) were incubated in 96-well microplates for 15 min at 30° C. in assay buffer (50 mM HEPES pH 7.4, 100 mM NaCl, 5 mM MgCl2, 10 μM GDP, 10 μg/ml saponin, EGTA 0.2 mM) with increasing concentrations of positive allosteric modulator (from 1 nM to 10 μM) and a minimal concentration of DCG-IV or LY379268, a selective mGluR2 agonist, that has been determined in previous experiments and that corresponds to the EC20, a concentration that gives 20% of the maximal response of the agonist, and is in accordance to published data (Pin et al. (1999) Eur. J. Pharmacol. 375:277-294). […]

T1 sequence (P31421 19-872): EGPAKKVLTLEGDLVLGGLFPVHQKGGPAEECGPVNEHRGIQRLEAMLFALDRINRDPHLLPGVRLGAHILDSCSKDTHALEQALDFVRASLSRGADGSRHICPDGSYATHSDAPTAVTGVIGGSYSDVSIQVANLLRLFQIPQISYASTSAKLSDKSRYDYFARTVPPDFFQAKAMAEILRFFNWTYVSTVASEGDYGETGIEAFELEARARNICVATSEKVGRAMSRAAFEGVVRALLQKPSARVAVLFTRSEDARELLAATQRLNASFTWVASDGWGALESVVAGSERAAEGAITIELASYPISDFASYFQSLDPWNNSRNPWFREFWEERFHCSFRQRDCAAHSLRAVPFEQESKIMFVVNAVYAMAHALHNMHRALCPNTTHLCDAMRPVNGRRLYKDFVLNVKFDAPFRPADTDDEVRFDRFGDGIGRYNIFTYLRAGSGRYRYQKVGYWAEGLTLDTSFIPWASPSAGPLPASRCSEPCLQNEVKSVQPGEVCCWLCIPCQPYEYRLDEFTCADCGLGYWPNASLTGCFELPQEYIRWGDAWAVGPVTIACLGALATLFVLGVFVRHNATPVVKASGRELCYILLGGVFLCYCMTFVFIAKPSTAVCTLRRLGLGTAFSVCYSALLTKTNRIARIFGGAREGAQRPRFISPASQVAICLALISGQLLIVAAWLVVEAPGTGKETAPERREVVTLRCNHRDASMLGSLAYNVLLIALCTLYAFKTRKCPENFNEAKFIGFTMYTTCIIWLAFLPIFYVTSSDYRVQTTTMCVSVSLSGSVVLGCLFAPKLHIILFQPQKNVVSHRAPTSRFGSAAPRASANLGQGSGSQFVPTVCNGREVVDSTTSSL

melting point | increase of the [GTPi^5S] binding induced by 50 nM of DCG-IV (native rat mGluR2; 10 μM compound together with mGluR2 agonist, compared to agonist alone, Figure B) | SMILES | Activity: left-ward shift of agonist mGluR2 concentration-response curve (native rat mGluR2) | agonistic activity when tested in the absence of 50 nM DCG-IV (native rat mGluR2; 10 μM compound, compared to buffer value (0% of maximal response), Figure B)
138.5 °C | – | COc1nc(NCCc2ccccc2)c2cc(C)sc2n1 [Compound 15, 2-methoxy-6-methyl-N-phenethylthieno[2,3-d]pyrimidin-4-amine] | +++ (left-ward shift of agonist mGluR2 concentration-response curve [>3.5-fold]) | –
155 °C and 155 to 155.5 °C | – | OCc1cc2c(NCCc3ccccc3)ncnc2s1 [Compound 58, (4-(phenethylamino)thieno[2,3-d]pyrimidin-6-yl)methanol] | ++ (left-ward shift of agonist mGluR2 concentration-response curve [2- to 3.5-fold]) | –
124.5 °C | – | CCc1cc2c(NCCCc3ccccc3)ncnc2s1 [Compound 75, 6-ethyl-N-(3-phenylpropyl)thieno[2,3-d]pyrimidin-4-amine] | ++ (left-ward shift of agonist mGluR2 concentration-response curve [2- to 3.5-fold]) | –
110.5 °C | – | CCCc1cc2c(NCCc3ccccc3)ncnc2s1 [Compound 79, N-phenethyl-6-propylthieno[2,3-d]pyrimidin-4-amine] | +++ (left-ward shift of agonist mGluR2 concentration-response curve [>3.5-fold]) | –
123.5 °C | – | CCCc1cc2c(NCCc3ccc(O)cc3)ncnc2s1 [Compound 82, 4-(2-(6-propylthieno[2,3-d]pyrimidin-4-ylamino)ethyl)phenol] | +++ (left-ward shift of agonist mGluR2 concentration-response curve [>3.5-fold]) | –
88 °C | – | CCc1cc2c(NCCc3ccccc3)ccnc2s1 [Compound 96, 2-ethyl-N-phenethylthieno[2,3-b]pyridin-4-amine] | +++ (left-ward shift of agonist mGluR2 concentration-response curve [>3.5-fold]) | –

Further lines, the compound ahead of its results:

SMILES | melting point | increase of the [GTPi^5S] binding induced by 50 nM of DCG-IV (native rat mGluR2; 10 μM compound together with mGluR2 agonist, compared to agonist alone, Figure B) | Activity: left-ward shift of agonist mGluR2 concentration-response curve (native rat mGluR2) | agonistic activity when tested in the absence of 50 nM DCG-IV (native rat mGluR2; 10 μM compound, compared to buffer value (0% of maximal response), Figure B)
Cc1nc(NCc2ccccc2)c2cc(C)sc2n1 [Compound 5, N-benzyl-2,6-dimethylthieno[2,3-d]pyrimidin-4-amine] | 124.2 °C | – | + (left-ward shift of agonist mGluR2 concentration-response curve [<2-fold]) | –
COc1ccc(CCNc2nc(C)nc3sc(C)cc23)cc1 [Compound 28, N-(4-methoxyphenethyl)-2,6-dimethylthieno[2,3-d]pyrimidin-4-amine] | 129 °C | significantly potentiated | – | no statistically significant agonistic activity
Cc1nc(NCCc2ccc(N)cc2)c2cc(C)sc2n1 [Compound 42, N-(4-aminophenethyl)-2,6-dimethylthieno[2,3-d]pyrimidin-4-amine] | 127 °C | – | ++ (left-ward shift of agonist mGluR2 concentration-response curve [2- to 3.5-fold]) | –
CC(=O)Nc1ccc(CCNc2nc(C)nc3sc(C)cc23)cc1 [Compound 43, N-(4-(2-(2,6-dimethylthieno[2,3-d]pyrimidin-4-ylamino)ethyl)-phenyl)acetamide] | 248 °C | – | ++ (left-ward shift of agonist mGluR2 concentration-response curve [2- to 3.5-fold]) | –
Cc1nc(NCCc2ccc(OCc3nn[nH]n3)cc2)c2cc(C)sc2n1 [Compound 46, N-(4-((2H-tetrazol-5-yl)methoxy)phenethyl)-2,6-dimethylthieno[2,3-d]pyrimidin-4-amine] | 205 °C | – | +++ (left-ward shift of agonist mGluR2 concentration-response curve [>3.5-fold]) | –
Cc1nc(NCCc2cccnc2)c2cc(C)sc2n1 [Compound 49, 2,6-dimethyl-N-(2-(pyridin-3-yl)ethyl)thieno[2,3-d]pyrimidin-4-amine] | 138 °C | – | + (left-ward shift of agonist mGluR2 concentration-response curve [<2-fold]) | –
COc1ccc(CCNc2nc(C)nc3sc(Cc4ccccc4)cc23)cc1 [Compound 61, N-(4-methoxyphenethyl)-6-benzyl-2-methylthieno[2,3-d]pyrimidin-4-amine] | – | – | ++ (left-ward shift of agonist mGluR2 concentration-response curve [2- to 3.5-fold]) | –
